From US20090275570A1, “SUBSTITUTED HETEROCYCLES AND THEIR USE AS CHK1, PDK1 AND PAK INHIBITORS” (ASTRAZENECA AB, priority 2005, published 2009) come the findings set out here.

Like-named read-outs stand apart in the source and are kept apart here.

Common to all, as to type: biochemical
In one assay the target is T1, Pak1 (Homo sapiens, UniProt Q13153).
T1 construct: The full-length Pak1 protein is expressed in E. coli as a GST fusion; GST; made in house; host or cells: E. coli
The assay is described as follows: In Vitro Pak1 Enzyme Assay (SPA). Conditions: read-out: IC50 value in the Pak 1 enzyme assay. The procedure: The assay used Scintillation Proximity Assay (SPA) technology (Antonsson et al., Analytical Biochemistry, 1999, 267: 294-299) to determine the ability of test compounds to inhibit phosphorylation by recombinant Pak1. The full-length Pak1 protein is expressed in E. coli as a GST fusion and purified using the GST tag using standard purification techniques.
(§1) Test compounds were prepared as 10 mM stock solutions in DMSO and diluted into water as required to give a range of final assay concentrations. Aliquots (5 μl) of each compound dilution were placed into a well of a Matrix 384-well flat bottom white polystyrene plate (Catalogue No. 4316). […]
Each reaction was stopped and the biotinylated peptide captured by the addition of 30 […] of a mixture of Streptavidin coated PVT SPA bead slurry (Amersham Biosciences, Catalogue No. RPQO205; 250 μg/well) in 50 mM Tris-HCl pH7.5 buffer containing 0.05% sodium azide followed by the addition of 30 μl of 2.83M Caesium chloride (final assay concentration of 1M). Plates are then left for 2 hours on the bench before being counted on a TopCount. […]
Pak1 enzyme inhibition for a given test compound was expressed as an IC50 value.

The next assay addresses T2, Pak4 (Homo sapiens, UniProt O96013).
T2 construct: The kinase domain of Pak4 (amino acids 291 to 591) is expressed in E. coli as a GST fusion; GST; made in house; host or cells: E. coli
Briefly: In Vitro Pak4 Enzyme Assay (SPA). Conditions: read-out: IC50 value in the Pak 4 enzyme assay. As for the experimental part: The assay used Scintillation Proximity Assay (SPA) technology (Antonsson et al., Analytical Biochemistry, 1999, 267: 294-299) to determine the ability of test compounds to inhibit phosphorylation by recombinant Pak4. The kinase domain of Pak4 (amino acids 291 to 591) is expressed in E. coli as a GST fusion and purified using the GST tag using standard purification techniques.
as §1
Each reaction was stopped and the biotinylated peptide captured by the addition of 30 μl of a mixture of Streptavidin coated PVT SPA bead slurry (Amersham Biosciences, Catalogue No. RPQ0205; 250 μg/well) in 50 mM Tris-HCl pH7.5 buffer containing 0.05% sodium azide followed by the addition of 30 μl of 2.83M Caesium chloride (final assay concentration of 1M). Plates are then left for 2 hours on the bench before being counted on a TopCount. […]
Pak4 enzyme inhibition for a given test compound was expressed as an IC50 value. […]

In a further assay the target is T3, PDK1 (Homo sapiens, UniProt O15530).
T3 construct: 6His; made in house; host or cells: insect cells
T3 sequence (O15530 1-556): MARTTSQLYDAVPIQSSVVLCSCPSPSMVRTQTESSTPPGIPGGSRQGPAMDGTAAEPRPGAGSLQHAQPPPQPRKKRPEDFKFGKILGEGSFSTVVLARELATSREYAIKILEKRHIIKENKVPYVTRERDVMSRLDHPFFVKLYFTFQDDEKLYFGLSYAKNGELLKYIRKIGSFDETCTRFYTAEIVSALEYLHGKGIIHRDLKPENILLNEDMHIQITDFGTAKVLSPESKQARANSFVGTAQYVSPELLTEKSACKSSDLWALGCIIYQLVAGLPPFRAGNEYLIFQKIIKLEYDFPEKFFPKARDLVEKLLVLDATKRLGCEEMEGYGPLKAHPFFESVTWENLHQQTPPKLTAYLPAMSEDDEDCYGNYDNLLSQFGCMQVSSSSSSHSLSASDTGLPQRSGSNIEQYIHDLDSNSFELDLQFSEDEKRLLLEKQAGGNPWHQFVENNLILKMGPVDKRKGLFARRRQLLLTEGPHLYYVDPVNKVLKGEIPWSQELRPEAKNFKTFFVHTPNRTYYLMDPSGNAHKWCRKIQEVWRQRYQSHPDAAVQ
Briefly: PDK1 Enzyme Assay (Alphascreen). As for the experimental part:
The assay utilised Alphascreen technology (Ullman, E F, et al. Proc. Natl. Acad. Sci. USA, Vol. 91, pp. 5426-5430, 1994) to measure the ability of compounds to inhibit PDK1 enzyme activity. 6H is tagged PDK1 enzyme was expressed in insect cells and purified using NiNTA beads and conventional protein purification methodology.
Test compounds were prepared as 10 mM stock solutions in DMSO and diluted into water as required to give a range of final assay concentrations. 2 μl aliquots of compounds were dispensed into Greiner Bio-One low volume 384 well plates (Catalogue no. 784075). For the activity assay, to each well was added 5 μl of a mixture of 48 nM native peptide (Biotin-Ahx-[…]NH2, Bachem UK Ltd) and 12 μM adenosine triphosphate (ATP) in reaction buffer comprising Tris-HCl pH7.4 (60 mM), magnesium acetate (12 mM), EGTA (120 μM), DTT (1.2 mM) and bovine serum albumin (0.12 mg/ml). […]
Each reaction was stopped by addition of 5 μl of a solution containing Tris-HCl pH7.4 (50 mM), bovine serum albumin (1 mg/ml), EDTA (90 mM), anti-phospho Akt T308 antibody, R&D Systems, Catalogue no. […] Plates were then sealed and incubated overnight in low light conditions before being read on an Envision plate reader (Perkin Elmer). […]

In a further assay the target is T4, CHK1 kinase (Homo sapiens, UniProt O14757).
T4 construct: The kinase domain is expressed in baculovirus and purified by the GST tag; GST; made in house; host or cells: baculovirus system (insect cells implied)
T4 sequence (O14757 9-265 limits assumed): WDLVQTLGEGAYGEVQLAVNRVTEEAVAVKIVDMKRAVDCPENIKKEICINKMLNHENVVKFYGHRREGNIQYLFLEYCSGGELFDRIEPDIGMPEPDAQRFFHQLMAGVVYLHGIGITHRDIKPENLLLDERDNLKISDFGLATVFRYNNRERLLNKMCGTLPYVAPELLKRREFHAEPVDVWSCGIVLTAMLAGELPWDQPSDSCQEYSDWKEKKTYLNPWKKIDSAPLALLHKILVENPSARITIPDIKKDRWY
Briefly: Checkpoint Kinase 1 Assay (SPA). As for the experimental part:
Checkpoint Kinase 1 Assay: This in vitro assay measures the inhibition of CHK1 kinase by compounds. The kinase domain is expressed in baculovirus and purified by the GST tag. Purified protein and biotinylated peptide substrate (Cdc25C) is then used in a 384 well automated Scintillation Proximity Assay (SPA). Specifically, peptide, enzyme and reaction buffer are mixed and aliquoted into a 384 well plate containing dilution series of compounds and controls. Cold and hot ATP are then added to initiate the reaction. After 2 hours, a SPA bead slurry, […] and EDTA are added to stop the reaction and capture the biotinylated peptide. Plates are then counted on a Topcount. Data is analyzed and IC50s determined for individual compounds.

T1 sequence (Q13153 whole entry, the tested form may be a part): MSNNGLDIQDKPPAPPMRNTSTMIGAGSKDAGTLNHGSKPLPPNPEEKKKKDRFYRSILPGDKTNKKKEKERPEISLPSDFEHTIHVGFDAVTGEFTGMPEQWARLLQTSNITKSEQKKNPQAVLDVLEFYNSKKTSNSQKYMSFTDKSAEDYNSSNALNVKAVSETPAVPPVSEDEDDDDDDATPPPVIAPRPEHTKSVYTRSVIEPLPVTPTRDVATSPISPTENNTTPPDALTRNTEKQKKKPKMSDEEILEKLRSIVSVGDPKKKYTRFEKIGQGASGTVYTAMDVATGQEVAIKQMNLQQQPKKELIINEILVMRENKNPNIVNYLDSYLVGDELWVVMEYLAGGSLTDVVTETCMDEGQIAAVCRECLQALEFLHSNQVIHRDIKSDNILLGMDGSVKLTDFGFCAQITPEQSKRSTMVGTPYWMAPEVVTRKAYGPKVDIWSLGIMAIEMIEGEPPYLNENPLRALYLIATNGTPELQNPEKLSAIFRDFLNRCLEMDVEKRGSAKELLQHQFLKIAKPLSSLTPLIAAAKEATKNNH
T2 sequence (O96013 291-591): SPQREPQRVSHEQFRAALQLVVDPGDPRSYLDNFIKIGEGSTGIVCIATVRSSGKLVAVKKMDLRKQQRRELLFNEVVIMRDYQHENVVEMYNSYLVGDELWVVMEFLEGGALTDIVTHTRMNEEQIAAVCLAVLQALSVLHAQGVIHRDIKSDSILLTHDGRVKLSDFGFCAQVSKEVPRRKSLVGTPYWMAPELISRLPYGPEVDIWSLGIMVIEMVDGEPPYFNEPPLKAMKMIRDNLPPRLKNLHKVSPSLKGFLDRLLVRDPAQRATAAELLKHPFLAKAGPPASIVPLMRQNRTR

In general, IC50 refers to the midpoint of a concentration-inhibition curve. For the compound `NC(=O)c1cnc(N[C@H]2CCCNC2)c2cc(-c3cc(F)cc(F)c3)sc12` [Example 10, 2-(3,5-difluorophenyl)-4-[(3S)-piperidin-3-ylamino]thieno[3,2-c]pyridine-7-carboxamide], the IC50 on Pak1 turned out to be 730 nM; at Pak4 it was 140 nM; at PDK1, 350 nM.
As to `NC(=O)c1cnc(N[C@H]2CCCNC2)c2cc(-c3ccc(Cl)cc3)sc12` [Example 14, 2-(4-chlorophenyl)-4-[(3S)-piperidin-3-ylamino]thieno[3,2-c]pyridine-7-carboxamide], the IC50 on Pak1 stood at 600 nM; on Pak4, 100 nM; on PDK1, 160 nM.
On to `NCCNc1ncc(C(N)=O)c2sc(-c3ccccc3)cc12` [Example 16, 4-[(2-aminoethyl)amino]-2-phenylthieno[3,2-c]pyridine-7-carboxamide], for which, on CHK1 kinase (read-out: IC50 value in the Checkpoint Kinase 1 assay), the IC50 is 550 nM.
For `Cc1cc2c(N[C@H]3CCCNC3)ncc(C(N)=O)c2s1` [Example 157, 2-methyl-4-[(3S)-piperidin-3-ylamino]thieno[3,2-c]pyridine-7-carboxamide], inhibition at CHK1 kinase was half-maximal at 150 nM (IC50).
